Legend:
Assay type in all cases: cell-based, C. elegans
LGC-54 = LGC-54 (Caenorhabditis elegans, UniProt O17041); test: Two-electrode voltage clamp, agonist-evoked currents in Xenopus oocytes expressing LGC-54
Text: We aimed to deorphanize C. elegans LGICs without known ligands, focusing on 5 genes in the putative monoamine-gated group: lgc-50; lgc-51; lgc-52; lgc-54; and lgc-56 (previously named ggr-3). Using heterologous overexpression in Xenopus oocytes and two-electrode voltage clamp recordings, we measured channel activity evoked by application of 11 monoamines and other neurotransmitters.
(§1) Defolliculated Xenopus laevis oocytes were obtained from EcoCyte Bioscience (Dortmund, Germany) and maintained in ND96 (in mM: 96 NaCl, 1 MgCl2, 5 HEPES, 1.8 CaCl2, 2 KCl) solution at 16°C for 3-5 days.
5'-capped cRNA was synthesized in vitro using the T3 mMessage mMachine transcription kit according to manufacturer’s protocol (Thermo Fischer Scientific, CA, USA). RNA was then purified using the GeneJET RNA purification kit (Thermo Fischer Scientific, CA, USA) prior to cRNA injection. Defolliculated Xenopus oocytes were placed individually into 96 well plates and injected with 50nL of 500ng/μL RNA using the Roboinject system (Multi Channel Systems GmbH, Reutlingen, Germany). When two constructs were injected the total RNA concentration remained 500ng/μL, with a 1:1 ratio of the components. Injected oocytes were incubated at 16°C in ND96 until the day of recording, typically between 3-5 days post injection.
Two-electrode voltage clamp recordings were carried out using the Robocyte2 recording system or a manual TEVC set up, using an OC-725D amplifier (Multi Channel Systems, Reutlingen, Germany) and paired with a custom-made recording chamber and agar bridges from reference and bath electrodes. Glass electrodes were pulled on a P-1000 Micropipette Puller (Sutter, Ca, USA) with a resistance ranging from 0.7-2 MΩ, pipettes, containing AgCl wires, were backfilled with a 3 M KCl solution for manual recordings and 1.5M KCl and 1 M acetic acid for Robocyte2 recordings. Oocytes were clamped at −60mV unless stated otherwise. Continuous recordings were taken during application of agonists and antagonists at 500 Hz. Data was recorded using WinWCP or RoboCyte2 control software, manual data was filtered at 10 Hz.
Dose response curves were calculated from the peak current during a 10 s agonist stimulation in ND96 solution, with a 60 s ND96 wash in between doses. Data was gathered over at least two occasions, using different batches of oocytes. Normalized dose response data was fitted to a nonlinear curve using a four parameters variable slope and the EC50 and Hill slope was calculated. All further recordings were carried out with the agonist at its EC50 concentration unless stated otherwise. Ion selectivity was determined using a voltage ramp protocol of 20mV/s ranging from −80mV to +60mV in the presence or absence of the primary agonist in three different solutions: ND96, NMDG (Na^+ free) and Na Gluconate (low Cl^-) solutions. Normalized ramp curves were fitted to a linear regression line and the x intercept was compared between solutions to calculate an average Erev from 4-5 oocytes. Antagonist dose response curves were calculated from the peak current during a 10 s agonist + antagonist stimulation in ND96 solution, with the agonist concentration remaining constant. Repeated agonist stimulus protocols were carried out by measuring the peak current during a 10 s agonist stimulation at three wash intervals, 10 s, 30 s and 60 s. Kinetic measurements were calculated from a 60 s agonist perfusion. Python scripts for TEVC analysis can be found at on GitHub at hiris25/TEVC-analysis-scripts and on Zenodo https://doi.org/10.5281/zenodo.5095181.
Dose response and antagonist response curves were generated using custom-built python scripts (key resources table), which combined data from multiple recordings and normalized data by calculating I/Imax for each oocyte.

LGC-50 Δ363-379 = target: T1, LGC-50 Δ363-379 (Caenorhabditis elegans, UniProt P41849, DEL363-379); test: Two-electrode voltage clamp, 5-HT evoked dose response, LGC-50 deletion mutant Δ363-379
T1 construct: Plasmid: KSM: lgc-50 (cDNA, Δ363-379); expressed in transfected cells; host or cells: Xenopus laevis oocytes injected with cRNA (plasmid pIH142)
Description: To identify such domains, we tested the effects of deletion mutations in the LGC-50 M3/4 loop (Figure 5A).
as §1
5'-capped cRNA was synthesized in vitro using the T3 mMessage mMachine transcription kit according to manufacturer’s protocol (Thermo Fischer Scientific, CA, USA). RNA was then purified using the GeneJET RNA purification kit (Thermo Fischer Scientific, CA, USA) prior to cRNA injection. […]
(§2) Two-electrode voltage clamp recordings were carried out using the Robocyte2 recording system or a manual TEVC set up, using an OC-725D amplifier (Multi Channel Systems, Reutlingen, Germany) and paired with a custom-made recording chamber and agar bridges from reference and bath electrodes. […] Data was recorded using WinWCP or RoboCyte2 control software, manual data was filtered at 10 Hz.
(§3) Dose response curves were calculated from the peak current during a 10 s agonist stimulation in ND96 solution, with a 60 s ND96 wash in between doses. […] Normalized dose response data was fitted to a nonlinear curve using a four parameters variable slope and the EC50 and Hill slope was calculated. […] Kinetic measurements were calculated from a 60 s agonist perfusion. […]

[1] = target: T2, LGC-50 S335D, T348D, S353A (Caenorhabditis elegans, UniProt P41849, S335D/S353A/); test: Two-electrode voltage clamp, 5-HT evoked dose response, LGC-50 phosphomimic mutant
T2 construct: Plasmid: KSM: lgc-50 (cDNA, S335D, T348A, S353A); expressed in transfected cells; host or cells: Xenopus laevis oocytes injected with cRNA (probably plasmid pIH134)
Text: In addition to this region, we also investigated three upstream predicted phosphorylation sites. Phosphorylation of the M3/4 loop has previously been implicated in the trafficking and cell surface recycling of GABAA receptors.[23]^,[24] The first site in the M3/4 loop of LGC-50, S335, is predicted to be a cdc2 site, and T348 and S353 are predicted protein kinase C (PKC) or PKA sites (Table S2).[25]^,[26] We introduced both phosphorylation-dead alanine mutations and phosphomimic aspartate mutations into these sites to assess their effect on receptor trafficking. […]
as §2, §3

Sequence of LGC-54 (O17041 entry or part of it): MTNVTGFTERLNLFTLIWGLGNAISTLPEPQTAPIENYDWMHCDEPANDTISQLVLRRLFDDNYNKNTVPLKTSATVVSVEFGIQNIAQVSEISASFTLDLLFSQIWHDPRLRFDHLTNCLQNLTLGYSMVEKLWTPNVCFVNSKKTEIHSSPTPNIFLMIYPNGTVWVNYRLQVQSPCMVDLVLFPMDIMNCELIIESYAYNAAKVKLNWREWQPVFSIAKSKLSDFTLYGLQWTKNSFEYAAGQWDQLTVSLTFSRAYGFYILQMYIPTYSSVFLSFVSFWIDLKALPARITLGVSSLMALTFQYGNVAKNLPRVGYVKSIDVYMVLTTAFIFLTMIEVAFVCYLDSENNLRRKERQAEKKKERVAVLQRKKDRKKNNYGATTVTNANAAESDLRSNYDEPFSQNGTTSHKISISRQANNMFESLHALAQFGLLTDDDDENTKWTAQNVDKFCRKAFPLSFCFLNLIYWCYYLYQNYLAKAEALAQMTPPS
T2 sequence (P41849 20-491 S335D/T348A/S353A): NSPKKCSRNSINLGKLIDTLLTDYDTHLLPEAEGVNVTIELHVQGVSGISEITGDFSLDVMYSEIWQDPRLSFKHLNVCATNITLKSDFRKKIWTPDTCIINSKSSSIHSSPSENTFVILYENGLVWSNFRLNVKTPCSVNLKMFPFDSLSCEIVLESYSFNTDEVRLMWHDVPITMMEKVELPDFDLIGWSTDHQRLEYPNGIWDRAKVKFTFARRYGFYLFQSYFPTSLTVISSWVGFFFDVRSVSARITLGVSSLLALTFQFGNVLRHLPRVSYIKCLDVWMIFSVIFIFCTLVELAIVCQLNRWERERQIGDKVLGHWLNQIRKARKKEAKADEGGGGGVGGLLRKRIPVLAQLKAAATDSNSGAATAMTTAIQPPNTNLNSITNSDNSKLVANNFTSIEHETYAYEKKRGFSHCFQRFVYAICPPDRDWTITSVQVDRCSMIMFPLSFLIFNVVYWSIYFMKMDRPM
T1 sequence (P41849 other isoform, or with tags, fused parts or gaps DEL363-379): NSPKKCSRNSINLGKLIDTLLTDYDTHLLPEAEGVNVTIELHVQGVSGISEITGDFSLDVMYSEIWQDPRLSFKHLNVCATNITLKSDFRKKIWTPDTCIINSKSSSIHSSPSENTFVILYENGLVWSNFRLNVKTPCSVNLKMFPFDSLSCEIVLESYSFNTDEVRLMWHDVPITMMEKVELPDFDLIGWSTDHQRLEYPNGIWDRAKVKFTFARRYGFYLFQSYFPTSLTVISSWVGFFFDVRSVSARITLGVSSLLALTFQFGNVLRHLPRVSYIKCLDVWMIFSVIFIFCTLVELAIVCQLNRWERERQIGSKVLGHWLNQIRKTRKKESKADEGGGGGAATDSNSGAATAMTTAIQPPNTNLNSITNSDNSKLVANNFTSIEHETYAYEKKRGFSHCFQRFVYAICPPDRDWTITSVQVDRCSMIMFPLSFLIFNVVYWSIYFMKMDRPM

NCCc1c[nH]c2ccc(O)cc12 [5-HT, serotonin]
EC50 (LGC-54; Xenopus oocytes, TEVC, current normalized to Imax, Hill equation with variable slope, read-out: EC50, agonist-evoked dose response, LGC-54): 94000 nM
Channel activation in ligand screen, LGC-54 (LGC-54; ligands screened at 100 μM, oocytes clamped at −60 mV): responded to 5-HT at high concentrations
EC50 (LGC-50 Δ363-379): 930 nM
EC50 [1]: 720 nM

From publication PMC8536830 (Current Biology, 2021)
